The results in this text go back to patent publication US4387104A, “N-Substituted pyruvic acid hydrazones, preparation thereof and pharmaceutical compositions containing them” (Boehringer Mannheim GmbH, priority 1980, dated 1983).

The test system of one assay is glucose resorption. Description: resorption-inhibiting activity (oral glucose loading) in fasting guinea pigs. The format is in vivo. To be noted: Cavia porcellus, PIG1, ip, guinea pig, 1 g glucose p.o., AUC difference vs control; for inhibition in vivo at 20 mg/kg: dose 20 mg/kg i.p.; for inhibition in vivo at 10 mg/kg: dose 10 mg/kg i.p.; for inhibition in vivo at 40 mg/kg: dose 40 mg/kg i.p. Here is the method: (§1) To establish the pharmacological properties of the compounds in accordance with the invention, blood-sugar-lowering activity and resorption inhibition were determined in separate tests and compared with two structurally related compounds.
To determine the effect on glucose resorption, oral glucose loading was effected. To this end, the substance to be tested was administered intraperitoneally as potassium salt, as described, to a group of ten fasting guinea pigs. At the same time, 1 g glucose was orally administered to the animals as a 20% solution by means of an esophageal bougie.
After a preliminary value has been established, up to […] blood was taken from the animals at close (20-minute) intervals for determination of the glucose concentrations, as described.
A control group carried along in parallel also was given 1 g glucose p.o., and intraperitoneally a corresponding amount of 0.9% NaCl solution.
The blood-glucose concentration was determined in the hemolysate by the hexokinase method, as described.
With regard to glucose resorption, the area under the concentration/time curve, calculated by means of the empirical trapeze formula, served as quantity to be measured. The difference in the area between the control and test groups, expressed in percent, was used as a measure for the inhibition of glucose resorption.

In assay [1] the test system is fasting glycemia (blood-glucose concentration). The experiment in a line: threshold dose of blood-sugar-lowering activity in fasting guinea pigs. Format: in vivo. Conditions: Cavia porcellus, ip; guinea pig, i.p., potassium salt, pH 7.4; significant lowering of fasting glycemia (p<0.05), N=4 per dose group. The method, then:
as §1
Fasting guinea pigs were used as experimental model to determine the threshold dose of the blood-lowering activity of the substances to be investigated. Food was withheld from the individual animals used in the investigation for 16 hours prior to the start of the tests. The animals were kept unfed throughout the testing period but had free access to drinking water.
The substances were administered through intraperitoneal injection of a solution of the potassium salt at pH 7.4.
A control group carried along in parallel was given an 0.9% NaCl solution.
The drawing of blood for determination of the glucose concentrations was effected immediately prior to administration of the substances and at one-hour intervals up to the fourth hour after the administration of the substances. To this end, an ear vein was carefully punctured with a No. 18 cannula, and the drops of blood issuing were picked up with a 10 μl capillary.
The blood-glucose concentration was determined in the hemolysate by the specific hexokinase method. To this end, the 10 μl blood sample was pipetted into a stabilizer solution containing digitonin as hemolysis accelerator and maleinimide as glycolysis inhibitor. Following this, an aliquot was taken from the hemolysate so obtained and determined by the hexokinase method on an LKB 8600 (made by LKB, Bromma, Sweden).
The dose which with the specified number of test animals per dose group (N=4) was just large enough to produce a significant lowering of fasting glycemia (p<0.05) was adopted as threshold dose.

In general, inhibition in vivo refers to the percentage by which the read-out fell short of the control. High values mean a strong effect, low ones a weak effect. For orientation: minimal effective dose means the lowest level tested that produced the effect sought.

`CC(=NNCCC1CCCCC1)C(=O)O` [B, 2-(2-cyclohexylethylhydrazono)-propionic acid, reference compound] registered an inhibition in vivo at 15 mg/kg with glucose resorption (dose 15 mg/kg i.p.) of 0%. For the same compound, the minimal effective dose in assay [1] amounted to 15 mg/kg.
With `COCCCCCCNN=C(C)C(=O)O` [Example 3a, 2-(6-methoxyhexylhydrazono)-propionic acid], testing at 20 mg/kg in the assay with glucose resorption gave an inhibition in vivo of 11%. Also, in assay [1], the minimal effective dose is 20 mg/kg.
For `CCOCCCCCNN=C(C)C(=O)O` [Example 3b, 2-(5-ethoxypentylhydrazono)-propionic acid] the same measures were 34% and 20 to 25 mg/kg.
Consider `C=CCSCCNN=C(C)C(=O)[O-].[Na+]` [Example 2c, sodium 2-(2-allylthioethylhydrazono)-propionate], for which 10 mg/kg produced 16% inhibition in vivo in the assay with glucose resorption. Further, the minimal effective dose in assay [1] lay within 10 to 25 mg/kg.
For the compound `CC(=NNCCOc1ccccc1)C(=O)O` [Example 1b, 2-(2-phenoxyethylhydrazono)-propionic acid], testing at 40 mg/kg with glucose resorption gave an inhibition in vivo of 98%. Also, in assay [1], the minimal effective dose came to 25 mg/kg.
For `CC(=NNCCOCc1ccccc1)C(=O)[O-].[Na+]` [Example 2b, sodium 2-(2-benzyloxyethylhydrazono)-propionate] the same measures were 49.9% and over 50 mg/kg.
For `CC(=NNCCCOCc1ccccc1)C(=O)O` [Example 3e, 2-(3-benzyloxypropylhydrazono)-propionic acid] the same measures were 44% and over 50 mg/kg.
For `COCCOCCNN=C(C)C(=O)[O-].[Na+]` [Example 2a, sodium 2-[2-(2-methoxyethoxy)-ethylhydrazono]-propionate] the same measures were 37% and over 50 mg/kg.
`COCCSCCNN=C(C)C(=O)O` [Example 3f, 2-[2-(2-methoxyethylthio)-ethylhydrazono]-propionic acid] displayed an inhibition in vivo at 20 mg/kg in the assay with glucose resorption of 17.3%. Besides, the minimal effective dose in assay [1] amounted to 25 mg/kg.
Turning to `CC(=NNCCc1ccccc1)C(=O)O` [A, 2-(phenethylhydrazono)-propionic acid, reference compound], the inhibition in vivo at 10 mg/kg in the assay on glucose resorption stood at 0%. In addition, the minimal effective dose in assay [1] is 10 to 15 mg/kg.
In the assay on glucose resorption, `CC(=NNCCOc1ccc(C)cc1)C(=O)O` [Example 1, 2-(2-p-Tolyloxyethylhydrazono)-propionic acid] showed an inhibition in vivo at 40 mg/kg of 25%. Besides, in assay [1], the minimal effective dose was 25 mg/kg.
For `CC(=NNCCSc1ccccc1)C(=O)[O-].[Na+]` [Example 2d, sodium 2-(2-phenylthioethylhydrazono)-propionate] the same measures were 33% and 25 to 50 mg/kg.
In turn, `C=CCOCCNN=C(C)C(=O)O` [Example 3, 2-(2-Allyloxyethylhydrazono)-propionic acid] registered an inhibition in vivo at 20 mg/kg in the assay with glucose resorption of 9%. Besides, the minimal effective dose in assay [1] stood at 25 mg/kg.
As for `CC(=NNCCOCCC1CCCCC1)C(=O)O` [Example 3d, 2-[2-(2-cyclohexylethoxy)-ethylhydrazono]-propionic acid], in the assay with glucose resorption, 40 mg/kg produced 15% inhibition in vivo. In addition, in assay [1], the minimal effective dose is over 50 mg/kg.
